Converted amounts (≈) assume the structure as drawn.
Columns and labels:
Staphylococcus aureus [1] = assay: Antibacterial activity against Staphylococcus aureus 144 assessed as inhibition of bacterial growth incubated for 16 hrs by CLSI based broth microdilution method; assay type: functional
Staphylococcus aureus [2] = assay: Antibacterial activity against methicillin-resistant Staphylococcus aureus ATCC 43300 infected in ICR/Swiss mouse […] thigh infection model assessed as log reduction in bacterial load in thigh at 20 mg/kg, iv administered as bolus injection measured after 24 hrs; assay type: functional
Staphylococcus aureus [3] = assay: Antibacterial activity against Staphylococcus aureus SA17 assessed as inhibition of bacterial growth incubated for 16 hrs by CLSI based broth microdilution method; assay type: functional
Staphylococcus aureus [4] = assay: Antibacterial activity against methicillin-resistant Staphylococcus aureus ATCC 43300 infected in ICR/Swiss mouse systemic infection model assessed as survival rate at 30 mg/kg, iv administered as bolus injection 1 hr post infection measured twice daily after 2 to 7 days; assay type: functional; conditions: time 2-7 day
Staphylococcus aureus [5] = assay: Antibacterial activity against Staphylococcus aureus AD3 assessed as inhibition of bacterial growth incubated for 16 hrs by CLSI based broth microdilution method; assay type: functional
Bacterial 70S ribosome = assay: Binding affinity to Staphylococcus aureus ATCC 43300 50S ribosomal subunit assessed as equilibrium dissociation constant by surface plasmon resonance analysis; assay type: subcellular
[6] = molecular target: Bacterial 70S ribosome (Bacteria) (UniProt P0A7V0+P60723+P0AG67+P0A7R5+P0A7R9+P0A7S3+P0A7S9+P0AG59+P0ADZ4+P0A7T3+P0AG63+P0A7T7+P0A7U3+P0A7U7+P68679+P0A7V3+P0A7V8+P0A7W1+P02358+P02359+P0A7W7+P0A7X3+P0A7J3+P0A7J7+P0AA10+P0ADY3+P02413+P0ADY7+P0AG44+P0C018+P0A7K6+P0A7L0+P0A7L3+P0AG48+P61175+P0ADZ0+P60624+P68919+P0A7L8+P0A7M2+P0A7M6+P60422+P0AG51+P0A7N1+P0A7M9+P0A7N4+P0A7N9+P0A7P5+P0A7Q1+Q2EEQ2+P0A7Q6+P60438+P62399+P0AG55+P0A7K2); assay: Binding affinity to Staphylococcus aureus ATCC 43300 50S ribosomal subunit assessed as association rate constant by surface plasmon resonance analysis; assay type: subcellular
Staphylococcus aureus [7] = assay: Antibacterial activity against Staphylococcus aureus ATCC 29213 assessed as inhibition of bacterial growth incubated for 16 hrs by CLSI based broth microdilution method; assay type: functional
Staphylococcus aureus [8] = assay: Antibacterial activity against methicillin-resistant Staphylococcus aureus ATCC 43300 assessed as inhibition of bacterial growth incubated for 16 hrs by CLSI based broth microdilution method; assay type: functional
RAW264.7 = assay: Cytotoxicity against mouse RAW264.7 cells assessed as reduction in cell viability at 8 ug/ml incubated for 16 hrs by MTT assay; assay type: toxicity, cell-based; conditions: raw264.7, 16 h, dose 8 µg/ml
16HBE14o- [9] = assay: Cytotoxicity against human 16HBE14o- cells assessed as reduction in cell viability at 8 ug/ml incubated for 16 hrs by MTT assay; assay type: toxicity, cell-based; conditions: dose 8 µg/ml
Staphylococcus aureus [10] = assay: Antibacterial activity against methicillin-resistant Staphylococcus aureus ATCC 43300 assessed as log reduction in colony forming unit at 4 times MIC measured after 3 hrs by time kill assay; assay type: functional
Staphylococcus aureus [11] = assay: Antibacterial activity against methicillin-resistant Staphylococcus aureus ATCC 43300 assessed as log reduction in colony forming unit at 4 times MIC measured after 24 hrs by time kill assay; assay type: functional
16HBE14o- [12] = assay: Cytotoxicity against human 16HBE14o- cells assessed as reduction in cell viability at 8 ug/ml incubated for 16 hrs by MTT assay relative to control; assay type: toxicity, cell-based; conditions: at 8 µg/mL
[13] = Clearance in mouse at 10 mg/kg, iv administered as bolus infection measured upto 24 hrs by LC-MS analysis; assay type: ADME, organism-based; conditions: in vivo
[14] = Half life in mouse at 10 mg/kg, iv administered as bolus infection measured upto 24 hrs by LC-MS analysis; assay type: ADME, organism-based; conditions: in vivo
Staphylococcus aureus [15] = assay: Antibacterial activity against methicillin-resistant Staphylococcus aureus ATCC 43300 infected in ICR/Swiss mouse systemic infection model assessed as survival rate at 30 mg/kg, iv administered as bolus injection 1 hr post infection measured twice daily after 3 to 7 days; assay type: functional; conditions: time 3-7 day
[16] = Clearance in mouse assessed as hepatic blood flow at 10 mg/kg, iv administered as bolus infection measured upto 24 hrs by LC-MS analysis; assay type: ADME, organism-based; conditions: in vivo
[17] = MRT in mouse at 10 mg/kg, iv administered as bolus infection measured upto 24 hrs by LC-MS analysis; assay type: ADME, organism-based; conditions: in vivo
[18] = AUC(0 to t) in mouse at 10 mg/kg, iv administered as bolus injection measured upto 24 hrs by LC-MS analysis; assay type: ADME, organism-based; parameters: dose 10 mg/kg, time < 24 hrs, route iv; conditions: in vivo
[19] = AUC(0 to infinity) in mouse at 10 mg/kg, iv administered as bolus injection measured upto 24 hrs by LC-MS analysis; assay type: ADME, organism-based; parameters: time < 24 hrs, dose 10 mg/kg, route iv; conditions: in vivo

C=C[C@]1(C)C[C@@H](OC(=O)CSCCN(CC)CC)[C@]2(C)[C@H](C)CC[C@]3(CCC(=O)[C@H]32)[C@@H](C)[C@@H]1O [TIAMULIN] gave an MIC (Staphylococcus aureus [1]) of 1 mg/L (≈ 2.03 µM), an Activity (Staphylococcus aureus [2]) of -1.1 log10CFU/ml and an MIC (Staphylococcus aureus [3]) of 1 mg/L (≈ 2.03 µM). It also gave a survival at 30 mg/kg (Staphylococcus aureus [4]) of 30%, an MIC (Staphylococcus aureus [5]) of 0.5 mg/L (≈ 1.01 µM) and a Kd (Bacterial 70S ribosome) of 0.0363 µM. For the same compound, the Ka [6] was 1.22 10^2/Ms, the MIC (Staphylococcus aureus [7]) was 0.5 mg/L (≈ 1.01 µM) and the MIC (Staphylococcus aureus [8]) was 0.5 mg/L (≈ 1.01 µM).

With C=C[C@]1(C)C[C@@H](OC(=O)CSc2nnc(-c3cccc(Cl)c3)[nH]2)[C@]2(C)[C@H](C)CC[C@]3(CCC(=O)[C@H]32)[C@@H](C)[C@@H]1O the MIC (Staphylococcus aureus [1]) was 0.25 mg/L (≈ 0.437 µM), the Activity (RAW264.7) was “Non-Toxic” and the MIC (Staphylococcus aureus [3]) was 0.125 mg/L (≈ 0.218 µM). The MIC (Staphylococcus aureus [5]) was 0.125 mg/L (≈ 0.218 µM), the Activity (16HBE14o- [9]) was “Non-Toxic” and the Activity (Staphylococcus aureus [10]) was -1 log10CFU/ml. The MIC (Staphylococcus aureus [7]) was 0.125 mg/L (≈ 0.218 µM), the Activity (Staphylococcus aureus [11]) was -9.23 log10CFU/ml and the MIC (Staphylococcus aureus [8]) was 0.0625 mg/L (≈ 0.109 µM).

In the case of C=C[C@]1(C)C[C@@H](OC(=O)CSc2nnc(-c3ccccc3[N+](=O)[O-])[nH]2)[C@]2(C)[C@H](C)CC[C@]3(CCC(=O)[C@H]32)[C@@H](C)[C@@H]1O, the MIC (Staphylococcus aureus [1]) is reported as 0.25 mg/L (≈ 0.429 µM), the Activity (RAW264.7) is reported as “Non-Toxic” and the MIC (Staphylococcus aureus [3]) is reported as 0.125 mg/L (≈ 0.215 µM). For the same compound, the MIC (Staphylococcus aureus [5]) was 0.25 mg/L (≈ 0.429 µM), the Activity (16HBE14o- [9]) was “Non-Toxic” and the MIC (Staphylococcus aureus [7]) was 0.125 mg/L (≈ 0.215 µM). It also gave an MIC (Staphylococcus aureus [8]) of 0.25 mg/L (≈ 0.429 µM).

In the case of C=C[C@]1(C)C[C@@H](OC(=O)CSc2nnc(-c3ccccc3C(F)(F)F)[nH]2)[C@]2(C)[C@H](C)CC[C@]3(CCC(=O)[C@H]32)[C@@H](C)[C@@H]1O, the MIC (Staphylococcus aureus [1]) is reported as 8 mg/L (≈ 13.2 µM), the Activity (RAW264.7) is reported as “Non-Toxic” and the MIC (Staphylococcus aureus [3]) is reported as 4 mg/L (≈ 6.6 µM). The MIC (Staphylococcus aureus [5]) was 0.25 mg/L (≈ 0.413 µM), the Activity (16HBE14o- [9]) was “Non-Toxic” and the MIC (Staphylococcus aureus [7]) was 0.5 mg/L (≈ 0.825 µM). It also gave an MIC (Staphylococcus aureus [8]) of 0.25 mg/L (≈ 0.413 µM).

For C=C[C@]1(C)C[C@@H](OC(=O)CSc2nnc(-c3cccc(C(F)(F)F)c3)[nH]2)[C@]2(C)[C@H](C)CC[C@]3(CCC(=O)[C@H]32)[C@@H](C)[C@@H]1O, the MIC (Staphylococcus aureus [1]) was greater than 32 mg/L, the Activity (16HBE14o- [12]) was greater than 50% and the Activity (RAW264.7) was “Non-Toxic”. For the same compound, the MIC (Staphylococcus aureus [3]) was greater than 32 mg/L, the MIC (Staphylococcus aureus [5]) was 0.25 mg/L (≈ 0.413 µM) and the MIC (Staphylococcus aureus [7]) was 2 mg/L (≈ 3.3 µM). For the same compound, the MIC (Staphylococcus aureus [8]) was 1 mg/L (≈ 1.65 µM).

With C=C[C@]1(C)C[C@@H](OC(=O)CSc2nnc(-c3cccc([N+](=O)[O-])c3)[nH]2)[C@]2(C)[C@H](C)CC[C@]3(CCC(=O)[C@H]32)[C@@H](C)[C@@H]1O the MIC (Staphylococcus aureus [1]) was 2 mg/L (≈ 3.43 µM), the Activity (RAW264.7) was “Non-Toxic” and the MIC (Staphylococcus aureus [3]) was 0.5 mg/L (≈ 0.858 µM). The MIC (Staphylococcus aureus [5]) was 0.0625 mg/L (≈ 0.107 µM), the Activity (16HBE14o- [9]) was “Non-Toxic” and the MIC (Staphylococcus aureus [7]) was 0.25 mg/L (≈ 0.429 µM). For the same compound, the MIC (Staphylococcus aureus [8]) was 0.125 mg/L (≈ 0.215 µM).

For C=C[C@]1(C)C[C@@H](OC(=O)CSc2nnc(-c3cccc(C)c3)[nH]2)[C@]2(C)[C@H](C)CC[C@]3(CCC(=O)[C@H]32)[C@@H](C)[C@@H]1O, the MIC (Staphylococcus aureus [1]) was 4 mg/L (≈ 7.25 µM), the Activity (RAW264.7) was “Non-Toxic” and the MIC (Staphylococcus aureus [3]) was 1 mg/L (≈ 1.81 µM). The MIC (Staphylococcus aureus [5]) was 0.0625 mg/L (≈ 0.113 µM), the Activity (16HBE14o- [9]) was “Non-Toxic” and the MIC (Staphylococcus aureus [7]) was 0.25 mg/L (≈ 0.453 µM). For the same compound, the MIC (Staphylococcus aureus [8]) was 0.25 mg/L (≈ 0.453 µM).

In the case of C=C[C@]1(C)C[C@@H](OC(=O)CSc2nnc(-c3ccc(C(F)(F)F)cc3)[nH]2)[C@]2(C)[C@H](C)CC[C@]3(CCC(=O)[C@H]32)[C@@H](C)[C@@H]1O, the MIC (Staphylococcus aureus [1]) is reported as greater than 32 mg/L, the Activity (16HBE14o- [12]) is reported as greater than 50% and the Activity (RAW264.7) is reported as “Non-Toxic”. For the same compound, the MIC (Staphylococcus aureus [3]) was greater than 32 mg/L, the MIC (Staphylococcus aureus [5]) was 0.25 mg/L (≈ 0.413 µM) and the MIC (Staphylococcus aureus [7]) was 2 mg/L (≈ 3.3 µM). It also gave an MIC (Staphylococcus aureus [8]) of 0.5 mg/L (≈ 0.825 µM).

With C=C[C@]1(C)C[C@@H](OC(=O)CSc2nnc(-c3ccc(F)cc3)[nH]2)[C@]2(C)[C@H](C)CC[C@]3(CCC(=O)[C@H]32)[C@@H](C)[C@@H]1O the MIC (Staphylococcus aureus [1]) was 1 mg/L (≈ 1.8 µM), the Activity (RAW264.7) was “Non-Toxic” and the MIC (Staphylococcus aureus [3]) was 1 mg/L (≈ 1.8 µM). The MIC (Staphylococcus aureus [5]) was 0.0625 mg/L (≈ 0.112 µM), the Activity (16HBE14o- [9]) was “Non-Toxic” and the MIC (Staphylococcus aureus [7]) was 0.125 mg/L (≈ 0.225 µM). It also gave an MIC (Staphylococcus aureus [8]) of 0.125 mg/L (≈ 0.225 µM).

C=C[C@]1(C)C[C@@H](OC(=O)CSc2nnc(-c3ccccc3F)[nH]2)[C@]2(C)[C@H](C)CC[C@]3(CCC(=O)[C@H]32)[C@@H](C)[C@@H]1O gave an MIC (Staphylococcus aureus [1]) of 0.25 mg/L (≈ 0.45 µM), a clearance [13] of 5.43 L/h/kg and an Activity (Staphylococcus aureus [2]) of -1.53 log10CFU/ml. For the same compound, the t1/2 [14] was 22.2 min, the Activity (RAW264.7) was “Non-Toxic” and the survival at 30 mg/kg (Staphylococcus aureus [15]) was 50%. For the same compound, the MIC (Staphylococcus aureus [3]) was 0.125 mg/L (≈ 0.225 µM), the QH [16] was 5.4 L/h/kg and the MIC (Staphylococcus aureus [5]) was 0.03 mg/L (≈ 0.054 µM). For the same compound, the Kd (Bacterial 70S ribosome) was 1.95 µM, the MRT [17] was 93.6 min and the Activity (16HBE14o- [9]) was “Non-Toxic”. The Ka [6] was 1.04 10^3/M.s, the Activity (Staphylococcus aureus [10]) was -1.66 log10CFU/ml and the MIC (Staphylococcus aureus [7]) was 0.125 mg/L (≈ 0.225 µM). The AUC(0-t) at 24 h [18] was 1.83 µg·h/mL, the AUC(0-inf) [19] was 1.84 µg·h/mL and the Activity (Staphylococcus aureus [11]) was -7.7 log10CFU/ml. The MIC (Staphylococcus aureus [8]) was 0.0625 mg/L (≈ 0.112 µM).

— ChEMBL document CHEMBL5137011, “Semisynthetic pleuromutilin antimicrobials with therapeutic potential against methicillin-resistant Staphylococcus aureus by targeting 50S ribosomal subunit” (Eur J Med Chem, 2022)
